Measured values reported in paper PMC5547389, “Structure-activity relationships and molecular docking studies of chromene and chromene based azo chromophores: A novel series of potent antimicrobial and anticancer agents” (EXCLI Journal, 2017).
≈ marks a conversion by molar mass, not a printed value.

Test system: not given
Assay: not given
Conditions: not given

Row | Compound | melting point
1 | N#CC1=C(N)Oc2c(N)cc3ccccc3c2C1c1ccc(F)cc1 (stereo not drawn) [4a, 3,5-diamino-1-(4-fluorophenyl)-1H-benzo[f]chromene-2-carbonitrile] | 193 °C
2 | COc1ccc(N=Nc2cc3c(cc2O)OC(N)=C(C#N)C3c2ccc(F)cc2)cc1 (stereo not drawn) [13b, 2-Amino-4-(4-fluoro-phenyl)-7-hydroxy-6-(4-methoxy-phenylazo)-4H-chromene-3-carbonitrile] | 272 °C
3 | N#CC1=C(N)Oc2c(N)cc3ccccc3c2C1c1ccc(Cl)cc1 (stereo not drawn) [4b, 3,5-diamino-1-(4-chlorophenyl)-1H-benzo[f]chromene-2-carbonitrile] | 187 °C
4 | Cc1ccc(C2C(C#N)=C(N)Oc3c(N)cc4ccccc4c32)cc1 (stereo not drawn) [4c, 3,5-diamino-1-(p-tolyl)-1H-benzo[f]chromene-2-carbonitrile] | 180 °C

Test system: Aspergillus fumigatus (RCMB 02568)
Assay: MIC by serial dilution method
Type: cell-based
Conditions: RCMB02568, fungi, read-out: Minimum inhibitory concentration, MIC, A.F
How it was run: (§1)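 Step one: agar diffusion well assay for antibacterial and antifungal activity. Step two: serial dilution to obtain […] minimum inhibitory concentrations, run alongside ampicillin, ciprofloxacin, gentamicin and amphotericin B as positive controls.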

Row | Compound | MIC
5 | N#CC1=C(N)Oc2c(N)cc3ccccc3c2C1c1ccc(F)cc1 (stereo not drawn) [4a, 3,5-diamino-1-(4-fluorophenyl)-1H-benzo[f]chromene-2-carbonitrile] | 15.6 µg/mL (≈ 47.2 µM)
6 | COc1ccc(N=Nc2cc3c(cc2O)OC(N)=C(C#N)C3c2ccc(F)cc2)cc1 (stereo not drawn) [13b, 2-Amino-4-(4-fluoro-phenyl)-7-hydroxy-6-(4-methoxy-phenylazo)-4H-chromene-3-carbonitrile] | 62.5 µg/mL (≈ 150 µM)
7 | N#CC1=C(N)Oc2c(N)cc3ccccc3c2C1c1ccc(Cl)cc1 (stereo not drawn) [4b, 3,5-diamino-1-(4-chlorophenyl)-1H-benzo[f]chromene-2-carbonitrile] | 0.24 µg/mL (≈ 0.69 µM)
8 | Cc1ccc(C2C(C#N)=C(N)Oc3c(N)cc4ccccc4c32)cc1 (stereo not drawn) [4c, 3,5-diamino-1-(p-tolyl)-1H-benzo[f]chromene-2-carbonitrile] | 3.9 µg/mL (≈ 11.9 µM)

Test system: Bacillus subtilis (RCMB 010067)
Assay: MIC by serial dilution method
Type: cell-based
Conditions: RCMB010067, Gm+ve, read-out: Minimum inhibitory concentration, MIC, B.S
How it was run: as §1

Row | Compound | MIC
9 | N#CC1=C(N)Oc2c(N)cc3ccccc3c2C1c1ccc(F)cc1 (stereo not drawn) [4a, 3,5-diamino-1-(4-fluorophenyl)-1H-benzo[f]chromene-2-carbonitrile] | 3.9 µg/mL (≈ 11.8 µM)
10 | COc1ccc(N=Nc2cc3c(cc2O)OC(N)=C(C#N)C3c2ccc(F)cc2)cc1 (stereo not drawn) [13b, 2-Amino-4-(4-fluoro-phenyl)-7-hydroxy-6-(4-methoxy-phenylazo)-4H-chromene-3-carbonitrile] | 3.9 µg/mL (≈ 9.37 µM)
11 | N#CC1=C(N)Oc2c(N)cc3ccccc3c2C1c1ccc(Cl)cc1 (stereo not drawn) [4b, 3,5-diamino-1-(4-chlorophenyl)-1H-benzo[f]chromene-2-carbonitrile] | 0.007 µg/mL (≈ 0.0201 µM)
12 | Cc1ccc(C2C(C#N)=C(N)Oc3c(N)cc4ccccc4c32)cc1 (stereo not drawn) [4c, 3,5-diamino-1-(p-tolyl)-1H-benzo[f]chromene-2-carbonitrile] | 7.81 µg/mL (≈ 23.9 µM)

Test system: Streptococcus pneumoniae (RCMB 010010)
Assay: MIC by serial dilution method
Type: cell-based
Conditions: RCMB010010, Gm+ve, read-out: Minimum inhibitory concentration, MIC, S.P
How it was run: as §1

Row | Compound | MIC
13 | N#CC1=C(N)Oc2c(N)cc3ccccc3c2C1c1ccc(F)cc1 (stereo not drawn) [4a, 3,5-diamino-1-(4-fluorophenyl)-1H-benzo[f]chromene-2-carbonitrile] | 15.6 µg/mL (≈ 47.2 µM)
14 | COc1ccc(N=Nc2cc3c(cc2O)OC(N)=C(C#N)C3c2ccc(F)cc2)cc1 (stereo not drawn) [13b, 2-Amino-4-(4-fluoro-phenyl)-7-hydroxy-6-(4-methoxy-phenylazo)-4H-chromene-3-carbonitrile] | 31.2 µg/mL (≈ 75 µM)
15 | N#CC1=C(N)Oc2c(N)cc3ccccc3c2C1c1ccc(Cl)cc1 (stereo not drawn) [4b, 3,5-diamino-1-(4-chlorophenyl)-1H-benzo[f]chromene-2-carbonitrile] | 0.49 µg/mL (≈ 1.41 µM)
16 | Cc1ccc(C2C(C#N)=C(N)Oc3c(N)cc4ccccc4c32)cc1 (stereo not drawn) [4c, 3,5-diamino-1-(p-tolyl)-1H-benzo[f]chromene-2-carbonitrile] | 7.81 µg/mL (≈ 23.9 µM)

Test system: primary mixed neuronal in vitro culture
Assay: Acute toxicity, LDH release
Type: cell-based, rat
Conditions: 10 µM, 24 hrs of incubation
Experimental: In vitro experiments were carried out at the University of Prince Edward Island and approved by the Animal Care and Biosafety Committees, which adheres to the guidelines of the Canadian Council on Animal Care (protocol #14-041 and 15-028). Mixed neocortical cultures, containing both neurons and glia, were prepared from fetal rats at 17-18 days gestation. Briefly, embryonic tissue was extracted from untimed pregnant Sprague-Dawley rats by caesarean section and transferred to ice-cold Hanks Balanced Salt Solution (Gibco). Cortical brain tissue was carefully isolated by fine dissection using aseptic techniques. Cortices were minced in cold HBSS using a sterile razor blade prior to digestion with 0.0125 % trypsin. Dissociated cells were plated in poly-L-lysine (1 mg/ml, Sigma Aldrich) coated 96 well plates at a seeding density of 50000 cells/well in warm (37 °C) Dulbecco's Modified Eagle Medium (Gibco) containing 10 % iron-supplemented bovine calf serum (Hyclone) and 1 % antibiotic/antimycotic (Gibco). Cultures were allowed to adhere overnight in a humidified 37 °C incubator having 5 % CO2 and atmospheric oxygen. The following day, the media was replaced with warmed Neurobasal A Medium (Gibco) containing 0.5 mM L-glutamine (Gibco) and supplemented with 1 % B27, N2 and antibiotic/antimycotic (Gibco). Half-volume media changes were made every 4 days thereafter with experiments being carried out on 14-16 day old cultures. After 14 days in culture, the medium was replaced with deoxygenated unsupplemented glucose-free Neurobasal A containing either 10 or 100 µM of the novel compounds T3, T4, T5, T8, T9, T11, or T12. Control wells contained glucose-free medium plus vehicle - either 0.1 % ethanol or 0.1 % DMSO. Cultures were transferred to a humidified 37 °C incubator having 5 % CO2, 1.1 % O2 and the balance N2 for a period of 24 hours. Following OGD, an equal volume of normal supplemented Neurobasal A containing identical drug concentrations was added and cultures were transferred to normoxic conditions (5 % CO2 and atmospheric oxygen) for an additional 24 h. Cell viability was assessed by measuring LDH release from damaged cells. Control cultures were prepared in separate plates having supplemented Neurobasal A and being maintained in 5 % CO2 and atmospheric oxygen for the duration of the experiment. Toxicity was assessed in wells treated with 10 µM of each of the test compounds listed above. After 24 h an equal volume of culture media as added to each well to account for handling effects on experimental outcomes. Toxicity was assessed after an additional 24 h in culture by measuring LDH release from treated cells. At the end of each experiment, cell injury was assessed by measuring lactate dehydrogenase (LDH) released from damaged cells into the culture medium (Cytoscan LDH Assay, G Biosciences). LDH measurements represent the average of 7 replicate treatments/dose. The effect of OGD and drug treatments on LDH was expressed as a percent of LDH release compared to OGD and vehicle groups. […]
Lactate dehydrogenase (LDH) release in the medium is an enzymatic indicator that illustrates the loss of membrane integrity, apoptosis, or necrosis of a cell. Using a primary mixed neuronal in vitro culture, the cytotoxic effect of the chromene-based compounds (4a, 4c, 7c, 12c, 12k, 13g, and 13h) was assessed by lactate dehydrogenase (LDH) release from cells pretreated with different concentrations after 24 and 48 h of incubation (Figure 9A-C(Fig. 9)). […]

Row | Compound | LDH release more than vehicle | LDH release
17 | N#CC1=C(N)Oc2c(N)cc3ccccc3c2C1c1ccc(F)cc1 (stereo not drawn) [4a, 3,5-diamino-1-(4-fluorophenyl)-1H-benzo[f]chromene-2-carbonitrile] | 2-3 folds | 
18 | Cc1ccc(C2C(C#N)=C(N)Oc3c(N)cc4ccccc4c32)cc1 (stereo not drawn) [4c, 3,5-diamino-1-(p-tolyl)-1H-benzo[f]chromene-2-carbonitrile] |  | reduced the LDH release
19 | N#CC1=C(N)Oc2c(ccc3c(N)cccc23)C1c1ccc(F)cc1 (stereo not drawn) [7c] | 2-3 folds | 

Same assay, conditions: 100 µM, 24 hrs

Row | Compound | LDH release
20 | Cc1ccc(C2C(C#N)=C(N)Oc3c(N)cc4ccccc4c32)cc1 (stereo not drawn) [4c, 3,5-diamino-1-(p-tolyl)-1H-benzo[f]chromene-2-carbonitrile] | ineffective
21 | N#CC1=C(N)Oc2c(ccc3c(N)cccc23)C1c1ccc(F)cc1 (stereo not drawn) [7c] | more LDH release compared to the vehicle
